The source made the active and inactive calls. The calls are words filed in the database; no cut-off is given here.
Assays:
HL-60 = experiment: Antiproliferative activity against human HL-60 cells incubated for 72 hrs by MTT assay; type: functional, cell-based; conditions: HL-60, 72 h
MV4-11 [1] = experiment: cells; conditions: Homo sapiens, MV4-11, 72 h
Description: Antiproliferative activity against human MV4-11 cells incubated for 72 hrs by MTT assay

Menin = target: T1, Menin (Homo sapiens, UniProt O00255); experiment: Binding affinity to menin (unknown origin) incubated for 1 hr by fluorescence polarization assay
T1 sequence (O00255 whole entry): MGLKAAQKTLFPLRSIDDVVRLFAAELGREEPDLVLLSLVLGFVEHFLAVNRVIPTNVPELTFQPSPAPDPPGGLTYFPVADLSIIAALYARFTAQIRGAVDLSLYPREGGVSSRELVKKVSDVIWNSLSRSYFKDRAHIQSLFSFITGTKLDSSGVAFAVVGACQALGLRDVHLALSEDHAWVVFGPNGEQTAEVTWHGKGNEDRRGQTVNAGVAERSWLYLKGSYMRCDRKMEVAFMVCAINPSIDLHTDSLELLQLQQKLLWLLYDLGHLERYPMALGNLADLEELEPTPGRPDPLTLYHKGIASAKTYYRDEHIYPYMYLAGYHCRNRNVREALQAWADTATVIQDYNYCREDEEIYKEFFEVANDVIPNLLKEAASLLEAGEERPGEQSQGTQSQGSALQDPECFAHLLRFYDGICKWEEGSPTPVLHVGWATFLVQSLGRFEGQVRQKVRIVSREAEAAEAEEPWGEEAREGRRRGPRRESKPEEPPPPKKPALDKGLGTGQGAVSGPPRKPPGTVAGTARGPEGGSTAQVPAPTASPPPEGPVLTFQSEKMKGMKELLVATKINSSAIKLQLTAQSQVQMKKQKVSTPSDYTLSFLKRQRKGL

Ramos = experiment: Antiproliferative activity against human Ramos cells incubated for 72 hrs by MTT assay; type: functional, cell-based
HCT-116 = experiment: Antiproliferative activity against human HCT-116 cells incubated for 72 hrs by MTT assay; type: functional, cell-based; conditions: HCT-116, 72 h
[2] = Antiproliferative activity against human NCM460 cells incubated for 72 hrs by MTT assay; type: toxicity, cell-based
MCF7 = experiment: Antiproliferative activity against human MCF7 cells incubated for 72 hrs by MTT assay; type: functional, cell-based; conditions: MCF7, 72 h
Pfeiffer = experiment: Antiproliferative activity against human Pfeiffer cells incubated for 72 hrs by MTT assay; type: functional, cell-based
SU-DHL-6 = experiment: Antiproliferative activity against human SU-DHL-6 cells incubated for 72 hrs by MTT assay; type: functional, cell-based; conditions: SU-DHL-6, 72 h
Raji = experiment: Antiproliferative activity against human Raji cells incubated for 72 hrs by MTT assay; type: functional, cell-based
MV4-11 [3] = experiment: Induction of apoptosis in human MV4-11 cells assessed as viable cells at 10 uM incubated for 24 hrs by FITC Annexin-V/PI staining based flow cytometry analysis (reference value: 94.27%); type: functional; conditions: read-out: Activity
MV4-11 [4] = experiment: Effect on cell differentiation in human MV4-11 cells assessed as assessed as increase in CD11b protein expression at M2-2 at 0.1 uM incubated for 7 days by flow cytometry analysis (reference value: 13.86%); type: functional; conditions: time 7 day
MV4-11 [5] = experiment: Induction of apoptosis in human MV4-11 cells assessed as viable cells at 1 uM incubated for 24 hrs by FITC Annexin-V/PI staining based flow cytometry analysis (reference value: 94.27%); type: functional; conditions: read-out: Activity
MV4-11 [6] = experiment: Effect on cell differentiation in human MV4-11 cells assessed as decrease in HOXA9 expression level at 0.5 uM by qPCR analysis; type: functional, cell-based; conditions: time 24-48 hrs, TDE = time-dependent effect
MV4-11 [7] = experiment: Induction of apoptosis in human MV4-11 cells assessed as necrotic cells at 1 uM incubated for 24 hrs by FITC Annexin-V/PI staining based flow cytometry analysis (reference value: 0.04%); type: functional
MV4-11 [8] = experiment: Induction of apoptosis in human MV4-11 cells assessed as late apoptotic cells at 1 uM incubated for 24 hrs by FITC Annexin-V/PI staining based flow cytometry analysis (reference value: 3%); type: functional
MV4-11 [9] = experiment: Effect on cell differentiation in human MV4-11 cells assessed as decrease in MEIS1 expression level at 0.5 uM by qPCR analysis; type: functional, cell-based; conditions: time 24-48 hrs, TDE = time-dependent effect
MV4-11 [10] = experiment: Induction of apoptosis in human MV4-11 cells assessed as necrotic cells at 10 uM incubated for 24 hrs by FITC Annexin-V/PI staining based flow cytometry analysis (reference value: 0.04%); type: functional
MV4-11 [11] = experiment: Induction of cell cycle arrest in human MV4-11 cells assessed as accumulation of cells at G0/G1 phase incubated for 24 hrs by PI/RNase staining based flow cytometry analysis; type: functional; conditions: dose 0.1-10 µM
MV4-11 [12] = experiment: Effect on cell differentiation in human MV4-11 cells assessed as assessed as increase in CD11b protein expression at M2-1 at 1 uM incubated for 7 days by flow cytometry analysis (reference value: 86.12%); type: functional; conditions: time 7 day
MV4-11 [13] = experiment: Induction of apoptosis in human MV4-11 cells assessed as early apoptotic cells at 1 uM incubated for 24 hrs by FITC Annexin-V/PI staining based flow cytometry analysis (reference value: 2.68%); type: functional
MV4-11 [14] = experiment: Induction of apoptosis in human MV4-11 cells assessed as viable cells at 0.1 uM incubated for 24 hrs by FITC Annexin-V/PI staining based flow cytometry analysis (reference value: 94.27%); type: functional; conditions: read-out: Activity
MV4-11 [15] = experiment: Induction of apoptosis in human MV4-11 cells assessed as early apoptotic cells at 0.1 uM incubated for 24 hrs by FITC Annexin-V/PI staining based flow cytometry analysis (reference value: 2.68%); type: functional
MV4-11 [16] = experiment: Induction of apoptosis in human MV4-11 cells assessed as early apoptotic cells at 10 uM incubated for 24 hrs by FITC Annexin-V/PI staining based flow cytometry analysis (reference value: 2.68%); type: functional
MV4-11 [17] = experiment: Effect on cell differentiation in human MV4-11 cells assessed as decrease in MEIS1 expression level incubated for 48 hrs by qPCR analysis; type: functional, cell-based
MV4-11 [18] = experiment: Effect on cell differentiation in human MV4-11 cells assessed as decrease in HOXA9 expression level incubated for 48 hrs by qPCR analysis; type: functional, cell-based
MV4-11 [19] = experiment: Effect on cell differentiation in human MV4-11 cells assessed as assessed as increase in CD11b protein expression at M2-1 at 0.1 uM incubated for 7 days by flow cytometry analysis (reference value: 86.12%); type: functional; conditions: time 7 day
MV4-11 [20] = experiment: Induction of apoptosis in human MV4-11 cells assessed as late apoptotic cells at 0.1 uM incubated for 24 hrs by FITC Annexin-V/PI staining based flow cytometry analysis (reference value: 3%); type: functional
MV4-11 [21] = experiment: Induction of apoptosis in human MV4-11 cells assessed as necrotic cells at 0.1 uM incubated for 24 hrs by FITC Annexin-V/PI staining based flow cytometry analysis (reference value: 0.04%); type: functional
MV4-11 [22] = experiment: Induction of apoptosis in human MV4-11 cells assessed as late apoptotic cells at 10 uM incubated for 24 hrs by FITC Annexin-V/PI staining based flow cytometry analysis (reference value: 3%); type: functional
MV4-11 [23] = experiment: Effect on cell differentiation in human MV4-11 cells assessed as assessed as increase in CD11b protein expression at M2-2 at 10 uM incubated for 7 days by flow cytometry analysis (reference value: 13.86%); type: functional; conditions: time 7 day
MV4-11 [24] = experiment: Effect on cell differentiation in human MV4-11 cells assessed as assessed as increase in CD11b protein expression at M2-1 at 10 uM incubated for 7 days by flow cytometry analysis (reference value: 86.12%); type: functional; conditions: time 7 day
MV4-11 [25] = experiment: Effect on cell differentiation in human MV4-11 cells assessed as assessed as increase in CD11b protein expression at M2-2 at 1 uM incubated for 7 days by flow cytometry analysis (reference value: 13.86%); type: functional; conditions: time 7 day
MV4-11 [26] = experiment: Induction of cell cycle arrest in human MV4-11 cells assessed as accumulation of cells at G0/G1 phase at 10 uM incubated for 24 hrs by PI/RNase staining based flow cytometry analysis; type: functional
MV4-11 [27] = experiment: Effect on cell differentiation in human MV4-11 cells assessed as decrease in HOXA9 expression level at 5 uM by qPCR analysis; type: functional, cell-based; conditions: time 24-48 hrs, TDE = time-dependent effect
MV4-11 [28] = experiment: Effect on cell differentiation in human MV4-11 cells assessed as decrease in MEIS1 expression level at 5 uM by qPCR analysis; type: functional, cell-based; conditions: time 24-48 hrs, TDE = time-dependent effect

For `CN(C)CCOc1ncnc2c1ccn2C1CCN(CC2CN(c3ccc(C#N)cc3)C2)CC1`, the IC50 (HL-60) was > 10 µM, the IC50 (MV4-11 [1]) was > 10 µM and the IC50 (Menin) was > 10 µM.
For `CN1CCN(c2ncnc3c2ccn3C2CCN(CC3CN(c4ccc(C#N)cc4)C3)CC2)CC1`, the IC50 (HL-60) was > 10 µM, the IC50 (MV4-11 [1]) was > 10 µM and the IC50 (Menin) was > 10 µM.
For `CC[C@H](Nc1ncnc2[nH]cnc12)c1nc2cccc(F)c2c(=O)n1-c1ccccc1` [IDELALISIB], the IC50 (Ramos) was > 10 µM, the IC50 (HL-60) was > 10 µM and the IC50 (HCT-116) was > 10 µM. For the same molecule, the IC50 (MV4-11 [1]) was > 10 µM, the IC50 at 72 h [2] was > 10 µM and the IC50 (MCF7) was > 10 µM. For the same molecule, the IC50 (Pfeiffer) was > 10 µM, the IC50 (SU-DHL-6) was 0.1 µM and the IC50 (Raji) was > 10 µM.
Work on `Nc1ncnc2c1c(-c1ccc(F)cc1)cn2C1CCN(CC2CN(c3ccc(S(=O)(=O)C4CCC4)cc3)C2)CC1` yielded an IC50 (HL-60) of 8.8 µM, an IC50 (MV4-11 [1]) of 1.69 µM and an IC50 (Menin) of 0.53 µM.
With `N#Cc1ccc(N2CC(CN3CCC(n4cc(-c5ccc(F)cc5)c5c(N)ncnc54)CC3)C2)cc1` the IC50 (Ramos) was > 10 µM, the viability at 10 µM (MV4-11 [3]) was 55.8% and the Activity (MV4-11 [4]) was 14.39%. The IC50 (HL-60) was > 10 µM, the viability at 1 µM (MV4-11 [5]) was 91% and the Activity (MV4-11 [6]) was “Tde”. For the same molecule, the Activity (MV4-11 [7]) was 0.14%, the Activity (MV4-11 [8]) was 4.23% and the Activity (MV4-11 [9]) was “Tde”. For the same molecule, the IC50 (HCT-116) was > 10 µM, the Activity (MV4-11 [10]) was 1.09% and the IC50 (MV4-11 [1]) was 1.07 µM. The IC50 at 72 h [2] was > 10 µM, the IC50 (MCF7) was > 10 µM and the Activity (MV4-11 [11]) was “Dose-Dependent Effect”. It also gave an Activity (MV4-11 [12]) of 68.53%, an Activity (MV4-11 [13]) of 4.53% and a viability at 0.1 µM (MV4-11 [14]) of 93.9%. The Activity (MV4-11 [15]) was 3.34%, the Activity (MV4-11 [16]) was 8.52% and the IC50 (Pfeiffer) was > 10 µM. For the same molecule, the IC50 (SU-DHL-6) was 6.87 µM, the Activity (MV4-11 [17]) was “Dose-Dependent Effect” and the Activity (MV4-11 [18]) was “Dose-Dependent Effect”. The IC50 (Menin) was 0.38 µM, the Activity (MV4-11 [19]) was 85.59% and the IC50 (Raji) was > 10 µM. For the same molecule, the Activity (MV4-11 [20]) was 2.75%, the Activity (MV4-11 [21]) was 0.05% and the Activity (MV4-11 [22]) was 34.56%. For the same molecule, the Activity (MV4-11 [23]) was 69.67%, the Activity (MV4-11 [24]) was 30.31% and the Activity (MV4-11 [25]) was 31.47%.
In the case of `N#Cc1ccc(N2CC(CN3CCC(n4ccc5c(Cl)ncnc54)CC3)C2)cc1`, the IC50 (HL-60) is reported as > 10 µM, the IC50 (MV4-11 [1]) is reported as 6.54 µM and the IC50 (Menin) is reported as > 10 µM.
For `Nc1ncnc2c1c(-c1ccc(F)cc1)cn2C1CCN(CC2CN(c3ccc(S(=O)(=O)c4ccncc4)cc3)C2)CC1`, the IC50 (HL-60) was > 10 µM, the IC50 (MV4-11 [1]) was > 10 µM and the IC50 (Menin) was 1.22 µM.
With `N#Cc1ccc(N2CC(CN3CCC(n4ccc5c(N)ncnc54)CC3)C2)cc1` the IC50 (HL-60) was > 10 µM, the IC50 (MV4-11 [1]) was 5.2 µM and the IC50 (Menin) was 1.47 µM.
For `CCCc1cc2c(N3CCN(C4=NCC(C)(C)S4)CC3)ncnc2s1`, the viability at 10 µM (MV4-11 [3]) was 68%, the Activity (MV4-11 [26]) was “Active” and the IC50 (HL-60) was > 10 µM. For the same molecule, the Activity (MV4-11 [27]) was “Tde”, the viability at 1 µM (MV4-11 [5]) was 93.8% and the Activity (MV4-11 [7]) was 0.09%. For the same molecule, the Activity (MV4-11 [8]) was 3.02%, the Activity (MV4-11 [10]) was 0.19% and the Activity (MV4-11 [28]) was “Tde”. It also gave an Activity (MV4-11 [12]) of 79%, an Activity (MV4-11 [13]) of 3.12% and an Activity (MV4-11 [16]) of 13.22%. The Activity (MV4-11 [17]) was “Dose-Dependent Effect”, the Activity (MV4-11 [18]) was “Dose-Dependent Effect” and the Activity (MV4-11 [22]) was 18.52%. For the same molecule, the Activity (MV4-11 [23]) was 52.13%, the Activity (MV4-11 [24]) was 47.84% and the Activity (MV4-11 [25]) was 21%.
With `Nc1ncnc2c1c(-c1ccc(F)cc1)cn2C1CCN(CC2CN(c3ccc(S(=O)(=O)C4CCCCC4)cc3)C2)CC1` the IC50 (HL-60) was > 10 µM, the IC50 (MV4-11 [1]) was 2 µM and the IC50 (Menin) was 0.25 µM.
